Consider one compound from article PMC2822779, “A glycine receptor is involved in the organization of swimming movements in an invertebrate chordate” (BMC Neuroscience, 2010).

Usually EC50 stands for the concentration that produces a half-maximal response. Low values mean a more potent agent, high ones a less potent agent.

For the assay, the target named is T1, Ci-GlyR (Ciona intestinalis, UniProt D2KU21).
T1 construct: single subunit expressed alone; no tag stated; cDNA from hatched larvae
T1 sequence (D2KU21 25-491): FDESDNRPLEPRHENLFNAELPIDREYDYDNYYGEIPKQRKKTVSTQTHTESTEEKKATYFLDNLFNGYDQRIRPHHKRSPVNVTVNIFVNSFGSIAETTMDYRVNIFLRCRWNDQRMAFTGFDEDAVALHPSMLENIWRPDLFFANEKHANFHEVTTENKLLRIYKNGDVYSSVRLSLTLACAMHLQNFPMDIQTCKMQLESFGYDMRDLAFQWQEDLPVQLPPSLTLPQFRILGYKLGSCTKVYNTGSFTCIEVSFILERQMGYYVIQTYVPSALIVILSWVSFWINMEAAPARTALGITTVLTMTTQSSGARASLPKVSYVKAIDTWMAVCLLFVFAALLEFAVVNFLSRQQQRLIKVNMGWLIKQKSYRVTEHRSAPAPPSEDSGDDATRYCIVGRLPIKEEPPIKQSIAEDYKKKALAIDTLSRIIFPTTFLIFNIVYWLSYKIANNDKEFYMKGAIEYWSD
Briefly: two-electrode voltage clamp, Xenopus oocytes. Format: cell-based. Background: Two-electrode voltage clamp is typically applied to oocytes expressing channels or transporters.

Structures are written as SMILES.

On to `NCC(=O)O` [glycine], for which the EC50 is roughly 750 µM.
